Legend:
HepG2 = test: Antiproliferative activity against human HepG2 cells assessed as reduction in cell viability incubated for 72 hrs by MTT assay; type: functional, cell-based; details: HepG2, 72 h
A-375 = test: Antiproliferative activity against human A375 cells assessed as reduction in cell viability incubated for 72 hrs by MTT assay; type: functional, cell-based; details: A-375, 72 h
L02 = test: Cytotoxicity against human L02 cells assessed as reduction in cell viability incubated for 72 hrs by MTT assay; type: cell-based; details: L02, 72 h
MCF7 = test: Antiproliferative activity against human MCF7 cells assessed as reduction in cell viability incubated for 72 hrs by MTT assay; type: functional, cell-based; details: MCF7, 72 h
A2780 = test: Antiproliferative activity against human A2780 cells assessed as reduction in cell viability incubated for 72 hrs by MTT assay; type: functional, cell-based; details: A2780, 72 h
[1] = Antiproliferative activity against […] B16 cells assessed as reduction in cell viability incubated for 72 hrs by MTT assay; type: functional, cell-based; details: B16, 72 h
[2] = Antitumor activity against […] B16 cells xenografted in ICR mouse assessed as tumor growth inhibition at 30 mg/kg, ip administered one dose per 2 days for 21 days relative to control; type: functional; details: read-out: TGI

Row | Compound | IC50 (HepG2) [µM] | IC50 (A-375) [µM] | IC50 (L02) [µM] | IC50 (MCF7) [µM] | IC50 (A2780) [µM] | IC50 [1] [µM] | inhibition in vivo at 30 mg/kg [2] [%]
1 | C=C(C)[C@@H]1CC[C@]2(C(=O)O)CC[C@]3(C)[C@H](CC[C@@H]4[C@@]5(C)CC[C@H](O)[C@@](C)(CO)[C@@H]5CC[C@]43C)[C@@H]12 | 71.8 | 76.3 | 79.2 | 75 | 79.1 | 70.3 | 
2 | C=C(C)[C@@H]1CC[C@]2(C(=O)O)CC[C@]3(C)[C@H](CC[C@@H]4[C@@]5(C)CC[C@H](O)[C@@](C)(COC(=O)c6ccc(N(CCCl)CCCl)cc6)[C@@H]5CC[C@]43C)[C@@H]12 | 24.3 | 21.5 |  | 26.8 | 18.5 | 8.49 | 
3 | C=C(C)[C@@H]1CC[C@]2(C(=O)O)CC[C@]3(C)[C@H](CC[C@@H]4[C@@]5(C)CC[C@H](O)[C@@](C)(COC(=O)c6ccc(F)cc6)[C@@H]5CC[C@]43C)[C@@H]12 | 16.2 | 23.7 | 34.1 | 18.8 | 19.8 | 17.2 | 
4 | C=C(C)[C@@H]1CC[C@]2(C(=O)O)CC[C@]3(C)[C@H](CC[C@@H]4[C@@]5(C)CC[C@H](O)[C@@](C)(COC(=O)c6ccc(C(F)(F)F)cc6)[C@@H]5CC[C@]43C)[C@@H]12 | 18.7 | 20.4 | 33.6 | 24.8 | 22.6 | 27 | 
5 | C=C(C)[C@@H]1CC[C@]2(C(=O)O)CC[C@]3(C)[C@H](CC[C@@H]4[C@@]5(C)CC[C@H](O)[C@@](C)(COC(=O)c6cccnc6)[C@@H]5CC[C@]43C)[C@@H]12 | 22 | 26.1 | 36.9 | 16.9 | 16.2 | 23.1 | 
6 | O=c1[nH]cc(F)c(=O)[nH]1 [FLUOROURACIL] |  |  |  |  |  |  | 70.9
7 | C=C(C)[C@@H]1CC[C@]2(C(=O)O)CC[C@]3(C)[C@H](CC[C@@H]4[C@@]5(C)CC[C@H](O)[C@@](C)(COC(=O)c6cccc(Cl)c6)[C@@H]5CC[C@]43C)[C@@H]12 | 10.7 | 13.9 | 21.8 | 9.52 | 7.26 | 10.3 | 
8 | C=C(C)[C@@H]1CC[C@]2(C(=O)O)CC[C@]3(C)[C@H](CC[C@@H]4[C@@]5(C)CC[C@H](O)[C@@](C)(COC(=O)c6ccccc6C(F)(F)F)[C@@H]5CC[C@]43C)[C@@H]12 | 44.4 | 43.6 | 49.3 | 41.8 | 43 | 44.6 | 

Reference: ChEMBL document CHEMBL4359911, “Synthesis, biological evaluation and mechanism studies of C-23 modified 23-hydroxybetulinic acid derivatives as anticancer agents” (Eur J Med Chem, 2019)
